Our source for the IC50, DC50 and Dmax values is patent US20260166159A1, “KRAS G12D DEGRADATION AGENT, AND PREPARATION METHOD AND USE THEREFOR” (LEADINGTAC PHARMACEUTICAL (SHAOXING) CO., LTD., priority 2022, published 2026).

A value given as a limit tells only on which side of the number the result lay.

The target in assay [1] is T1, Human KRAS G12D 6His-tagged (Homo sapiens, UniProt P01116, G12D).
T1 construct: purchased PerkinElmer
The experiment in a line: KRAS-G12D/GTP binding assay (HTRF). How it is done:
In this method, the inhibitory effects of the compounds on the binding of KRAS-G12D to GTP were assayed by a homogeneous time-resolved fluorescence (HTRF) technique using a KRAS-G12D/GTP binding assay kit (PerkinElmer).
The experimental procedures were as follows (refer to the kit instructions for detailed test methods): the compounds of the present disclosure were each firstly dissolved in DMSO at a concentration of 20 mM, and then diluted in an equal gradient with a buffer in the kit, so that the final concentrations of the test compounds in the reaction system were in a range of 0.02-5000 nM, and the final concentration of DMSO was 0.5%. 5 μL of each compound was incubated with 5 μL of 1× Human KRAS G12D 6His-tagged (PerkinElmer), 5 μL of 1×6His Eu Cryptate Antibody (PerkinElmer), and 5 μL of 1×GTP Red reagent (PerkinElmer) in a 384-well plate (Greiner) at 25° C. for 1 h. After the incubation was completed, the fluorescence intensity of each well was measured at the excitation wavelength of 337 nm and the emission wavelengths of 620 nm and 665 nm with an EnVision microplate reader (PerkinElmer) in the HTRF mode, and Ratio values were calculated using the formula: Ratio=(665 nm/620 nm)×[…]. The inhibition rates of the compounds at each concentration were calculated by comparing the fluorescence intensity ratio with that of the control group. Then non-linear curve fittings for logarithmic concentration-inhibition rate were performed using the GraphPad Prism 8 analysis software, and the IC50 values of the compounds were obtained (Table 2).
(TR-FRET usually uses a lanthanide donor and a delayed reading to cut background.)

In the next assay the target is T2, KRAS-G12D (Homo sapiens, UniProt P01116, G12D).
T2 construct: endogenous in cells; host or cells: A-427 (ATCC), AGS, AsPc-1, Panc 04.03
The experiment in a line: KRAS-G12D degradation assay (Western Blot), A-427 cells. It counts as cell-based. To be noted: A427 cells, 24 h, class symbols; for Dmax: A-427. Put shortly: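 Each KRAS G12D mutant line (A-427, AGS, AsPc-1, Panc 04.03) was seeded at 5×10^5 cells/well and treated 24 h at 37 °C with 0.03–3000 nM compound (final DMSO 0.25%). KRAS in lysates was measured by Western blot, normalized to β-actin and compared with controls, giving DC50 and Dmax from curve fits.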

T2 sequence (P01116 1-188 isoform P01116-2 G12D): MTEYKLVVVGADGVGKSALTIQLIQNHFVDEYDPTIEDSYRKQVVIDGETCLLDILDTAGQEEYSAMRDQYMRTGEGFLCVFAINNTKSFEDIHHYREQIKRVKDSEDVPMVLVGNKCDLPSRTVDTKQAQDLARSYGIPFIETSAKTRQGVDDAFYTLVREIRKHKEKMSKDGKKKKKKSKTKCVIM
T1 sequence (P01116 1-188 isoform P01116-2 G12D): as above

Usually IC50 stands for the midpoint of a concentration-inhibition curve. High values mean a need for much substance, low ones inhibition by little substance. Usually DC50 stands for the concentration at which degradation of the target reaches its halfway point. A low value points to a more potent degrader. As a reminder, the Dmax is the largest share of the target that was removed. A higher Dmax goes with deep degradation. On to `CCc1cccc2cc(O)cc(-c3ncc4c(N5CC6CCC(C5)N6)nc(OC[C@@H]5CCCN5CCCC5CCN(C(=O)c6ccc(Cl)c(N7CCC(=O)NC7=O)c6)CC5)nc4c3F)c12` [Example 1, 1-(5-(4-(3-((S)-2-(((4-(3,8-diazabicyclo[3.2.1]octan-3-yl)-7-(8-ethyl-3-hydroxynaphthalen-1-yl)-8-fluoropyrido[4,3-d]pyrimidin-2-yl)oxy)methyl)pyrrolidin-1-yl)propyl)piperidine-1-carbonyl)-2-chlorophenyl)dihydropyrimidine-2,4(1H,3H)-dione], for which the IC50 in assay [1] (class symbols) lay in the range of 100 to 500 nM. On KRAS-G12D, this molecule came in with a DC50 of 1000 to 10000 nM and a Dmax of 30 to 50%.

`C#Cc1c(F)ccc2cc(O)cc(-c3ncc4c(N5CC6CCC(C5)N6)nc(OC[C@@H]5CCCN5CCCC5CCN(C(=O)c6ccc(Cl)c(N7CCC(=O)NC7=O)c6)CC5)nc4c3F)c12` [Example 9, 1-(5-(4-(3-((S)-2-(((4-(3,8-diazabicyclo[3.2.1]octan-3-yl)-7-(8-ethynyl-7-fluoro-3-hydroxynaphthalen-1-yl)-8-fluoropyrido[4,3-d]pyrimidin-2-yl)oxy)methyl)pyrrolidin-1-yl)propyl)piperidine-1-carbonyl)-2-chlorophenyl)dihydropyrimidine-2,4(1H,3H)-dione] had an IC50 in assay [1] (class symbols) of 50 to 100 nM. At KRAS-G12D, this molecule registered a DC50 of 1000 to 10000 nM and a Dmax of 30 to 50%.

`C#Cc1c(F)ccc2cc(O)cc(-c3ncc4c(N5CC6CCC(C5)N6)nc(OC[C@@H]5CCCN5CC5CCC6(CC5)CCN(C(=O)c5ccc(Cl)c(N7CCC(=O)NC7=O)c5)CC6)nc4c3F)c12` [Example 12, 1-(5-(9-(((S)-2-(((4-(3,8-diazabicyclo[3.2.1]octan-3-yl)-7-(8-ethynyl-7-fluoro-3-hydroxynaphthalen-1-yl)-8-fluoropyrido[4,3-d]pyrimidin-2-yl)oxy)methyl)pyrrolidin-1-yl)methyl)-3-azaspiro[5.5]undecane-3-carbonyl)-2-chlorophenyl)dihydropyrimidine-2,4(1H,3H)-dione] had an IC50 in assay [1] (class symbols) of 100 to 500 nM. At KRAS-G12D, this molecule returned a DC50 of 1000 to 10000 nM and a Dmax of 50 to 80%.

`C#Cc1c(F)ccc2cc(O)cc(-c3ncc4c(N5CC6CCC(C5)N6)nc(OCC5(CN6CCC(CCN7CCN(C(=O)c8ccc(Cl)c(N9CCC(=O)NC9=O)c8)CC7)CC6)CC5)nc4c3F)c12` [Example 28, 1-(5-(4-(2-(1-((1-(((4-(3,8-diazabicyclo[3.2.1]octan-3-yl)-7-(8-ethynyl-7-fluoro-3-hydroxynaphthalen-1-yl)-8-fluoropyrido[4,3-d]pyrimidin-2-yl)oxy)methyl)cyclopropyl)methyl)piperidin-4-yl)ethyl)piperazine-1-carbonyl)-2-chlorophenyl)dihydropyrimidine-2,4(1H,3H)-dione] returned an IC50 in assay [1] (class symbols) of no more than 50 nM. In addition, at KRAS-G12D, the DC50 fell in the range of 1000 to 10000 nM and the Dmax is less than 30%.

Regarding `CCc1cccc2cc(O)cc(-c3ncc4c(N5CC6CCC(C5)N6)nc(OC[C@@H]5CCCN5CCC5CCN(CCC(=O)N[C@H](C(=O)N6C[C@H](O)C[C@H]6C(=O)NCc6ccc(-c7scnc7C)cc6)C(C)(C)C)CC5)nc4c3F)c12` [Example 34, (2S,4R)-1-((S)-2-(3-(4-(2-((S)-2-(((4-(3,8-diazabicyclo[3.2.1]octan-3-yl)-7-(8-ethyl-3-hydroxynaphthalen-1-yl)-8-fluoropyrido[4,3-d]pyrimidin-2-yl)oxy)methyl)pyrrolidin-1-yl)ethyl)piperidin-1-yl)propanamido)-3,3-dimethylbutanoyl)-4-hydroxy-N-(4-(4-methylthiazol-5-yl)benzyl)pyrrolidine-2-carboxamide], the IC50 in assay [1] (class symbols) was 100 to 500 nM. At KRAS-G12D, this molecule came in with a DC50 of 1000 to 10000 nM and a Dmax of less than 30%.

`C#Cc1c(F)ccc2cc(O)cc(-c3ncc4c(N5CC6CCC(C5)N6)nc(OC[C@@H]5CCCN5CC5CCN(CCC(=O)N[C@H](C(=O)N6C[C@H](O)C[C@H]6C(=O)NCc6ccc(-c7scnc7C)cc6)C(C)(C)C)CC5)nc4c3F)c12` [Example 35, (2S,4R)-1-((S)-2-(3-(4-(((S)-2-(((4-(3,8-diazabicyclo[3.2.1]octan-3-yl)-7-(8-ethynyl-7-fluoro-3-hydroxynaphthalen-1-yl)-8-fluoropyrido[4,3-d]pyrimidin-2-yl)oxy)methyl)pyrrolidin-1-yl)methyl)piperidin-1-yl)propanamido)-3,3-dimethylbutanoyl)-4-hydroxy-N-(4-(4-methylthiazol-5-yl)benzyl)pyrrolidine-2-carboxamide] showed a 50% inhibitory concentration (IC50) in assay [1] (class symbols) of no more than 50 nM. On KRAS-G12D, the DC50 is 1000 to 10000 nM and the Dmax is less than 30%.

Consider `C#Cc1c(F)ccc2cc(O)cc(-c3ncc4c(N5CC6CCC(C5)N6)nc(OCC5CCN(CCCCC6CCC7(CC6)CCN(C(=O)c6ccc(Cl)c(N8CCC(=O)NC8=O)c6)CC7)CC5)nc4c3F)c12` [Example 52, 1-(5-(9-(4-(4-(((4-(3,8-diazabicyclo[3.2.1]octan-3-yl)-7-(8-ethynyl-7-fluoro-3-hydroxynaphthalen-1-yl)-8-fluoropyrido[4,3-d]pyrimidin-2-yl)oxy)methyl)piperidin-1-yl)butyl)-3-azaspiro[5.5]undecane-3-carbonyl)-2-chlorophenyl)dihydropyrimidine-2,4(1H,3H)-dione], for which, in assay [1] (class symbols), the IC50 was in the range of 100 to 500 nM. On KRAS-G12D, this molecule had a DC50 of 100 to 500 nM and a Dmax of 50 to 80%.

`C#Cc1c(F)ccc2cc(O)cc(-c3ncc4c(N5CC6CCC(C5)N6)nc(OCC5(CN6CC7CCC(C6)N7CC6CCC7(CC6)CCN(C(=O)c6ccc(Cl)c(N8CCC(=O)NC8=O)c6)CC7)CC5)nc4c3F)c12` [Example 58, 1-(5-(9-((3-((1-(((4-(3,8-diazabicyclo[3.2.1]octan-3-yl)-7-(8-ethynyl-7-fluoro-3-hydroxynaphthalen-1-yl)-8-fluoropyrido[4,3-d]pyrimidin-2-yl)oxy)methyl)cyclopropyl)methyl)-3,8-diazabicyclo[3.2.1]octan-8-yl)methyl)-3-azaspiro[5.5]undecane-3-carbonyl)-2-chlorophenyl)dihydropyrimidine-2,4(1H,3H)-dione] had an IC50 in assay [1] (class symbols) of 500 to 1000 nM. Besides, at KRAS-G12D, the DC50 is no more than 50 nM and the Dmax was in the range of 80 to 100%.

In turn, `C#Cc1c(F)ccc2cc(O)cc(-c3ncc4c(N5CC6CCC(C5)N6)nc(OCC5(CN6CCC(O)(COCCC7CCN(C(=O)c8ccc(Cl)c(N9CCC(=O)NC9=O)c8)CC7)CC6)CC5)nc4c3F)c12` [Example 63] gave an IC50 in assay [1] (numeric values) of 1.15 nM.

Regarding `C#Cc1c(F)ccc2cc(O)cc(-c3ncc4c(N5CC6CCC(C5)N6)nc(OCC5(CN6CCN(C(=O)c7ccc(Cl)c(N8CCC(=O)NC8=O)c7)CC6)CC5)nc4c3F)c12` [Example 69, 1-(5-(4-((1-(((4-(3,8-diazabicyclo[3.2.1]octan-3-yl)-7-(8-ethynyl-7-fluoro-3-hydroxynaphthalen-1-yl)-8-fluoropyrido[4,3-d]pyrimidin-2-yl)oxy)methyl)cyclopropyl)methyl)piperazine-1-carbonyl)-2-chlorophenyl)dihydropyrimidine-2,4(1H,3H)-dione], the IC50 in assay [1] (numeric values) came out at 2.4 nM.
